Experimental data as given in patent US11058742B2, “Food composition for suppressing hepatic lipogenesis” (FUJI OIL HOLDINGS INC., priority 2019, dated 2021).

Columns and labels:
[1] = test system: Fasn gene mRNA; assay: Secondary screening: expression level of Fasn gene mRNA in isolated hepatocyte derived from wild-type mouse; assay type: cell-based, mouse (C57BL/6J); settings: each peptide 100 μg/ml final concentration, 24 hours, with insulin, LXR agonist, amino acid mixture; vs control (10% DMSO)
Experimental: (§1) In the secondary screening, evaluation is performed by measuring the expression level of Fasn gene mRNA using isolated hepatocyte derived from wild-type mouse (C57BL/6J mouse). More specifically, isolated hepatocyte derived from wild-type mouse (C57BL/6J mouse) is plated in 12-well plate in Dulbecco's modified Eagle's medium (DMEM) containing 1% penicillin and streptomycin, and 10% fetal calf serum (FCS) for 8 hours, and then subjected to 16 hours starvation by replacing the medium with Dulbecco's modified Eagle's medium (DMEM) containing 1% penicillin and streptomycin. The medium is recovered and cultured for 24 hours in a medium containing insulin, liver X receptor (LXR) agonist, amino acid mixture, and each peptide (100 μg/ml in the medium at final concentration). In addition, as a group without adding peptide, a sample to which 10% dimethyl sulfoxide (DMSO) is added instead of the peptide is similarly cultured for 24 hours. After removing the medium from each well, mRNA is extracted. The extraction of mRNA is performed with the SV Total RNA Isolation System (Promega, Z3105), reverse transcription from the RNA is performed with the PrimeScript RT reagent kit (Takara, RR0037A), and quantitative PCR is performed with the CFX384 Real-Time System and C1000 Thermal Cycler using the SYBR Select Master Mix kit (Life technologies, 4472908). The methods comply with the instructions for the kit and equipment.

[2] = test system: Fasn gene mRNA; assay: Tertiary screening: Fasn gene expression level with changed amount of peptide; assay type: cell-based, mouse (C57BL/6J); settings: for effect of suppressing hepatic lipogenesis: conclusion from the results of primary to tertiary screening; for Fasn gene expression level (significantly reduced compared to the blank): final concentration of the sample 10, 30, 100 μg/ml, otherwise as secondary screening
Experimental: as §1
The amount of peptide to be added is changed (as used herein, the final concentration of the sample is 10, 30, 100 μg/ml, unless otherwise specified), and the expression level of the Fasn gene is evaluated in the same manner as in the secondary screening.

Substance | Fasn gene expression level (significantly reduced compared to the blank) [1] | effect of suppressing hepatic lipogenesis [2] | Fasn gene expression level (significantly reduced compared to the blank) [2]
Tyr-Tyr | significantly suppressed the expression of the Fasn gene | an effect of suppressing hepatic lipogenesis was confirmed | significantly suppressed the expression of the Fasn gene
Val-Met | significantly suppressed the expression of the Fasn gene | an effect of suppressing hepatic lipogenesis was confirmed | significantly suppressed the expression of the Fasn gene
